# Data: paper PMC3685885 (Toxicology and applied pharmacology, 2013)
# Several values for one entry are separate records, joined by “and”; a condition that tells them apart may be missing. Equal values may be shown once. Read-outs that look alike come from different tables or passages of the source.
# Experiments:
# human CB2Rs [1] = target: T1, human CB2Rs (Homo sapiens, UniProt P34972); assay: [35S]GTPγS binding; type: biochemical; conditions: CHO-hCB2 membranes; for Intrinsic activity at CB2Rs, G-protein activation: agonists at 10 µM compared to CP-55,940; for CB2R Efficacy (EMAX) G-protein Activation: 10 µM, [35S]GTPγS binding, mean ± SEM
# T1 sequence (P34972 whole entry): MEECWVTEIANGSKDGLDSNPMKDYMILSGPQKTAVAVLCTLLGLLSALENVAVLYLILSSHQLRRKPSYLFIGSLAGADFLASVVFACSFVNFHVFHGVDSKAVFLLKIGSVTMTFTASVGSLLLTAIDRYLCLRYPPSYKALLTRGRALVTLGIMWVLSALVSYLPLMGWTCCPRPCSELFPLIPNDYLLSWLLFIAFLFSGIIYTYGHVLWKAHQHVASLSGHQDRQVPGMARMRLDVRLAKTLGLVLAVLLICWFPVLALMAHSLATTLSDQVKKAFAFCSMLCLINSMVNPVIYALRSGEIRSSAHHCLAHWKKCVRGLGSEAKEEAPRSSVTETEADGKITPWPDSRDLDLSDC
# human CB2Rs [2] = target: T1, human CB2Rs; assay: [3H]CP-55,940 competition receptor binding in CHO-hCB2 membranes
# [3] = target: human mu-opioid receptors (Homo sapiens, UniProt P35372); assay: [35S]GTPγS binding; type: biochemical; conditions: 10 µM, membranes not expressing hCB2Rs
# Chain of human mu-opioid receptors (P35372 whole entry): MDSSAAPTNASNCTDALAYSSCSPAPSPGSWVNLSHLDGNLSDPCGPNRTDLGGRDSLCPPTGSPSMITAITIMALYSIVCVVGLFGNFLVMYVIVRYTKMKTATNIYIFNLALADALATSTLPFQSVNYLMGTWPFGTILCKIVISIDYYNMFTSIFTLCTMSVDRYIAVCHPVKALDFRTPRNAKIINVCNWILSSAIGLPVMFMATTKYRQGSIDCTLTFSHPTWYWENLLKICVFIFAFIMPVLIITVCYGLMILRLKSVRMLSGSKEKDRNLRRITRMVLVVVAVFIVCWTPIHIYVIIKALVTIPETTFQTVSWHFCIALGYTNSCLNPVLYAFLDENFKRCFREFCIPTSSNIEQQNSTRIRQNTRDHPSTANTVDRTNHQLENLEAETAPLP
# human CB2Rs [4] = target: T1, human CB2Rs; assay: Inhibition of forskolin-stimulated adenylyl cyclase; type: cell-based; conditions: for CB2R Efficacy (EMAX) AC-Inhibition: 10 µM; for Potency to regulate AC-activity relative to the parent compound: IC50 metabolite versus parent; for Intrinsic activity at CB2Rs, AC-inhibition: 10 µM compared to CP-55,940; for FRO for 50% AC-Inhibition: fractional CB2R occupancy at AC-IC50, FRO = [DRUG] / (Ki + [DRUG])
# [5] = intact CHO-hCB2 cells, mean ± SEM
# [6] = read-out: CB2R Affinity (Ki), [3H]CP-55,940 0.2 nM, CHO-hCB2 membranes, mean ± SEM
# [7] = read-out: Potency for AC-Inhibition (IC50), intact CHO-hCB2 cells, 30 µM forskolin, mean ± SEM
Molecule,"Intrinsic activity at CB2Rs, G-protein activation (human CB2Rs [1])",CB2R Efficacy (EMAX) G-protein Activation (human CB2Rs [1]),CB2R Efficacy (EMAX) AC-Inhibition (human CB2Rs [4]; [5]),Ki (human CB2Rs [2]; [6]) [nM],other results
"COc1ccc(C(=O)c2c(C)n(CCN3CCOCC3)c3cc(I)ccc23)cc1 [AM-630, reference compound]",acted as inverse agonists,–,–,–,–
"CCCCCOc1c(OC)ccc2cc(C(=O)NCc3ccc4c(c3)OCO4)c(=O)[nH]c12 [JTE-907, reference compound]",acted as inverse agonists,–,–,–,–
"CCCCCn1cc(C(=O)c2cccc3ccccc23)c2ccccc21 [JWH-018, 1-pentyl-3-(1-naphthoyl)indole]",–,60.3 ± 11.4 (7) fmole/mg,59.3 ± 4.0 (4) % Inhibition,–,Ki (human CB2Rs [2]): 5.6 ± 2.4 nM; Effect on G-protein activity in CHO-hMOR membranes [3]: failed to significantly alter G-protein activity; IC50 (human CB2Rs [4]): 3.6 ± 2.2 nM
O=C(c1cccc2ccccc12)c1cn(CCCCCO)c2ccccc12 [JWH-018-M5],–,38.4 ± 8.5 (5) fmole/mg,53.5 ± 4.6 (4) % Inhibition,47.4 ± 10.1,"Potency to regulate AC-activity relative to the parent compound (human CB2Rs [4]): ~5 fold; Intrinsic activity at CB2Rs, AC-inhibition (human CB2Rs [4]; intact CHO-hCB2 cells): partial CB2R agonists; IC50 (human CB2Rs [4]; [7]): 17.7 ± 5.5 nM"
O=C(O)CCCCn1cc(C(=O)c2cccc3ccccc23)c2ccccc21 [JWH-018-M6],–,–,–,> 10000,CB2R affinity (human CB2Rs [2]; CHO-hCB2 membranes): lack affinity for CB2Rs
"CCCCn1cc(C(=O)c2cccc3ccccc23)c2ccccc21 [JWH-073, 1-butyl-3-(1-naphthoyl)indole]",–,40.1 ± 4.2 (3) fmole/mg,62.6 ± 2.7 (3) % Inhibition,–,"Effect on G-protein activity in CHO-hMOR membranes [3]: failed to significantly alter G-protein activity; IC50 (human CB2Rs [4]): 16.9 ± 1.9 nM; FRO for 50% AC-Inhibition (human CB2Rs [4]): 62.5% and 62.5 ± 3.0 (5) %; Intrinsic activity at CB2Rs, AC-inhibition (human CB2Rs [4]; intact CHO-hCB2 cells): full agonists"
O=C(c1cccc2ccccc12)c1cn(CCCCO)c2ccccc12 [JWH-073-M5],–,31.0 ± 1.0 (3) fmole/mg,54.2 ± 5.9 (4) % Inhibition,96 ± 7.1,Potency to regulate AC-activity relative to the parent compound (human CB2Rs [4]): equipotent; FRO for 50% AC-Inhibition (human CB2Rs [4]): 12.1% and 12.1 ± 1.6 (3) %; IC50 (human CB2Rs [4]; [7]): 13.3 ± 2 nM
O=C(O)CCCn1cc(C(=O)c2cccc3ccccc23)c2ccccc21 [JWH-073-M6],–,–,–,> 10000,CB2R affinity (human CB2Rs [2]; CHO-hCB2 membranes): lack affinity for CB2Rs
SR-144528 [reference compound],acted as inverse agonists,–,–,–,–
